The values below come from ChEMBL document CHEMBL4330107, “Synthesis and biological evaluation of 3-aryl-4-indolyl-maleimides as potent mutant isocitrate dehydrogenase-1 inhibitors” (Bioorg Med Chem, 2019).

Assay [1] deals with Isocitrate dehydrogenase [NADP] cytoplasmic (Homo sapiens), O75874 [R132H]. In words: Inhibition of recombinant human N-terminal GST-fused IDH1 R132H mutant expressed in Escherichia coli at 20 ug/ml using alpha-ketoglutarate as substrate preincubated for 15 mins followed by substrate addition relative to control.
Chain of Isocitrate dehydrogenase [NADP] cytoplasmic (Homo sapiens), O75874 [R132H] (O75874 whole entry R132H, the tested form may be a part): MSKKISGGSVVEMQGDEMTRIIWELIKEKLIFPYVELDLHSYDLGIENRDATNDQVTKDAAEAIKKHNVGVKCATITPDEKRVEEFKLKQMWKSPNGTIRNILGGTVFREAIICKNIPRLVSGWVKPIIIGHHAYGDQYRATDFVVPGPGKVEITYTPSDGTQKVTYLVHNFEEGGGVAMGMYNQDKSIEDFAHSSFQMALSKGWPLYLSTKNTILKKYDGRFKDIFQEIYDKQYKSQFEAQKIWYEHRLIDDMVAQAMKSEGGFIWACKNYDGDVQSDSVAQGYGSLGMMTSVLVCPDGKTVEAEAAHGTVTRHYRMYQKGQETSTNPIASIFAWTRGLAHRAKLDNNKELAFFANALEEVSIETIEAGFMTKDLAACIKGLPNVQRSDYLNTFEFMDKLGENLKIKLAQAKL
Assay [2] addresses T1, Isocitrate dehydrogenase [NADP], mitochondrial (Homo sapiens, UniProt P48735).
T1 sequence (P48735 whole entry): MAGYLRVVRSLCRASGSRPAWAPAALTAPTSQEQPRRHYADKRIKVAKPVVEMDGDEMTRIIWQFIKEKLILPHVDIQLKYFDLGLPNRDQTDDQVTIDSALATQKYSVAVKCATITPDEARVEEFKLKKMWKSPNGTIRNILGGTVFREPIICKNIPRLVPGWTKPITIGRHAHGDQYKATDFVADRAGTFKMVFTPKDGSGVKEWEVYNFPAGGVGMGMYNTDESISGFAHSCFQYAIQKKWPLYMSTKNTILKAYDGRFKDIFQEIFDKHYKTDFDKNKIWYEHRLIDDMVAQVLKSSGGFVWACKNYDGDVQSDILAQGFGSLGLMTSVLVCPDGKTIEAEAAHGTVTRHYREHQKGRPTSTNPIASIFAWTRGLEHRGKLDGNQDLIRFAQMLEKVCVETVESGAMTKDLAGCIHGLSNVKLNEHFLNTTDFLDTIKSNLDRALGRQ
In words: Inhibition of recombinant human N-terminal GST-fused wild-type IDH2 using sodium (D)-isocitrate as substrate preincubated for 15 mins followed by substrate addition by fluorescence assay.

The nature of assay [3]: Inhibition of bovine GDH using L-glutamate as substrate measured after 1 hr. More on the design: species or system Bos taurus.
The target in assay [4] is Isocitrate dehydrogenase [NADP] cytoplasmic (Homo sapiens, UniProt O75874, R132C). In words: Inhibition of recombinant human N-terminal GST-fused IDH1 R132C mutant expressed in Escherichia coli using alpha-ketoglutarate as substrate preincubated for 15 mins followed by substrate addition.
Chain of Isocitrate dehydrogenase [NADP] cytoplasmic (Homo sapiens, UniProt O75874, R132C) (O75874 2-414 R132C limits assumed): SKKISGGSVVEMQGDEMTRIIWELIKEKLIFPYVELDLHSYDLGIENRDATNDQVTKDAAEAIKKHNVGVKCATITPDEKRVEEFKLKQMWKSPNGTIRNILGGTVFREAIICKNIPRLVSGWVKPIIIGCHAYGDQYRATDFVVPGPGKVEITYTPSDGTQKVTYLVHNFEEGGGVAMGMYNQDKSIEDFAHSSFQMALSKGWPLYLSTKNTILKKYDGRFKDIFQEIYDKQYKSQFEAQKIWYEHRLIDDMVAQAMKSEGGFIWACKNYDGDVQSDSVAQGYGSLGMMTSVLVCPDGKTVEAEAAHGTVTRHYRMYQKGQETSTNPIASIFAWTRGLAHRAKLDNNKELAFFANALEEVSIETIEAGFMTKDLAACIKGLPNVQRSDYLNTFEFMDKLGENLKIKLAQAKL
Assay [5] has as its target Isocitrate dehydrogenase [NADP] cytoplasmic (Homo sapiens, UniProt O75874, R132L). In words: Inhibition of recombinant human N-terminal GST-fused IDH1 R132L mutant expressed in Escherichia coli using alpha-ketoglutarate as substrate preincubated for 15 mins followed by substrate addition.
Another assay concerns the target T2, Hexokinase-4 (Homo sapiens, UniProt P35557).
T2 sequence (P35557 whole entry): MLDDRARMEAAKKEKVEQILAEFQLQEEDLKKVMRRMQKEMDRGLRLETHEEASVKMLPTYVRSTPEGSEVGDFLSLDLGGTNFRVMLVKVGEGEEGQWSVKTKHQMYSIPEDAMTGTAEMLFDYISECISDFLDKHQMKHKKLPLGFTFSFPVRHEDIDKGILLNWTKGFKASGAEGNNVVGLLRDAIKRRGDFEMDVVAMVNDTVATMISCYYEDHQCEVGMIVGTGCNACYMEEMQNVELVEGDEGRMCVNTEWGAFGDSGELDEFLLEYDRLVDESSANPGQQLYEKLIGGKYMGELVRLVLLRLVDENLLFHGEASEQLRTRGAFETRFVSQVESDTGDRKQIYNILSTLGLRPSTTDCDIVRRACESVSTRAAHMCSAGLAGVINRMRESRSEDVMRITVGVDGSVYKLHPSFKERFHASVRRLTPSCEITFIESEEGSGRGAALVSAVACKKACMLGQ
In words: Inhibition of recombinant human N-terminal GST-fused glucokinase expressed in Escherichia coli using […] by spectrophotometric assay.

For assay [6], the target named is Isocitrate dehydrogenase [NADP] cytoplasmic (Homo sapiens, UniProt O75874, R132H). In words: Inhibition of recombinant human N-terminal GST-fused IDH1 R132H mutant expressed in Escherichia coli using alpha-ketoglutarate as substrate preincubated for 15 mins followed by substrate addition.
Chain of Isocitrate dehydrogenase [NADP] cytoplasmic (Homo sapiens, UniProt O75874, R132H) (O75874 2-414 R132H limits assumed): as the sequence (O75874 2-414 R132C limits assumed) above, with C131H counted along it
Assay [7] has as its system Isocitrate dehydrogenase [NADP] cytoplasmic (Homo sapiens), O75874 [R132H]. In words: Inhibition of human IDH1 R132H mutant expressed in human U87MG cells assessed as reduction in 2-HG production at 5 to 20 uM after 48 hrs by LC-MS/MS analysis. It is filed as cell-based.
Assay [8] concerns the target Isocitrate dehydrogenase [NADP] cytoplasmic (Homo sapiens, UniProt O75874). In words: Inhibition of recombinant human N-terminal GST-fused wild-type IDH1 using sodium (D)-isocitrate as substrate by fluorescence assay.
A short description of assay [9]: Inhibition of Fructose-1,6-bisphosphatase expressed in Escherichia coli BL21 (DE3) by glucose-6-phosphate dehydrogenase/phosphoglucoisomerase coupled spectrophotometric method. More on the design: species or system Corynebacterium glutamicum.
The subject of assay [10] is Isocitrate dehydrogenase [NADP] cytoplasmic (Homo sapiens), O75874 [R132H]. In words: Inhibition of human IDH1 R132H mutant expressed in human U87MG cells assessed as reduction in 2-HG production after 48 hrs by LC-MS/MS analysis. It is filed as cell-based.
For assay [11] the test system is unchanged. In words: Inhibition of IDH1 R132H mutant in human TF1 cells assessed as reversal of cell differentiation block by measuring increase in HBG mRNA expression at 5 to 10 uM after 7 days by RT-qPCR analysis. In kind it is cell-based. For orientation: Real-time PCR tracks product formation cycle by cycle.

Calls of active or inactive are those of the source. The rule behind the calls is not given here.

Chain of Isocitrate dehydrogenase [NADP] cytoplasmic (Homo sapiens, UniProt O75874, R132L) (O75874 2-414 R132L limits assumed): as the sequence (O75874 2-414 R132C limits assumed) above, with C131L counted along it
Chain of Isocitrate dehydrogenase [NADP] cytoplasmic (Homo sapiens, UniProt O75874) (O75874 whole entry, the tested form may be a part): as the sequence (O75874 whole entry R132H, the tested form may be a part) above, with H132R counted along it

A word on the inhibition: it is the percentage by which the read-out fell short of the control. As to `Cn1cc(C2=C(c3nn(CCCn4cncn4)c4ncccc34)C(=O)NC2=O)c2ccccc21`, the inhibition in [1] worked out at 20.6%.
Broadly, the IC50 is the concentration that inhibits the measured activity by half. As to `Cn1nc(C2=C(c3cn(CCCCn4ccnc4)c4ccccc34)C(=O)NC2=O)c2cccnc21`, the IC50 is > 20000 nM in assay [2]; > 20000 nM in [3]; 415 nM in assay [4]; 311 nM in assay [5]; > 20000 nM on Hexokinase-4; 100 nM in assay [6]. In addition, the IC50 in assay [8] and in assay [9] was > 20000 nM throughout. Further, the inhibition entry in assay [7] was “inactive”.
In the case of `Cn1nc(C2=C(c3cn(CCCN4CCOCC4)c4ccccc34)C(=O)NC2=O)c2cccnc21`, the inhibition in [1] is 7.36%.
With `O=C1NC(=O)C(n2ccc3ccncc32)=C1c1cn(CCCn2ccnc2)c2ccccc12`, the half-inhibitory concentration (IC50) in assay [6] was 1450 nM.
For the compound `O=C1NC(=O)C(n2nnc3ccccc32)=C1c1cn(CCCn2ccnc2)c2ccccc12`, in assay [6], the IC50 is 1400 nM.
Turning to `O=C1NC(=O)C(c2cn(CCCn3ccnc3)c3ccccc23)=C1c1cccc2ccccc12`, the half-maximal inhibitory concentration (IC50) in assay [6] turned out to be 3050 nM.
As to `O=C1NC(=O)C(n2cnc3ccccc32)=C1c1cn(CCCn2ccnc2)c2ccccc12`, in assay [6], the half-inhibitory concentration (IC50) came to 7910 nM.
Take `Cn1cc(C2=C(c3nn(CCCN4CCOCC4)c4ncccc34)C(=O)NC2=O)c2ccccc21`: the inhibition in assay [1] was 17.3%.
In the case of `Cn1nc(C2=C(c3cn(CCCn4ccnc4)c4cc(Cl)ccc34)C(=O)NC2=O)c2cccnc21`, the half-maximal inhibitory concentration (IC50) was > 20000 nM in [2]; > 20000 nM in assay [3]; 423 nM in assay [4]; 307 nM in [5]; > 20000 nM at Hexokinase-4; 140 nM in [6]. Also, the IC50 in assay [8] and in assay [9] was > 20000 nM each time. Also, the inhibition entry in assay [10] was “Dose-dependent effect”.
Consider `COc1ccc2c(c1)c(C1=C(c3nn(C)c4ncccc34)C(=O)NC1=O)cn2CCCn1ccnc1`, for which the IC50 in assay [6] worked out at 13600 nM.
For `O=C1NC(=O)C(n2ccc3cnccc32)=C1c1cn(CCCn2ccnc2)c2ccccc12`, the half-inhibitory concentration (IC50) in [6] is 3720 nM.
With `O=C1NC(=O)C(c2cn(CCCn3ccnc3)c3ccccc23)=C1c1cc[nH]c1`, the 50% inhibitory concentration (IC50) in assay [6] stood at 1580 nM.
Take `CN1C(=O)C(c2cn(CCCn3ccnc3)c3ccccc23)=C(c2nn(C)c3ncccc23)C1=O`: the half-inhibitory concentration (IC50) in assay [6] was 930 nM.
Take `Cn1nc(C2=C(c3cn(CCCn4ccnc4)c4cccc(Br)c34)C(=O)NC2=O)c2cccnc21`: the IC50 in assay [6] amounted to 930 nM.
As for `Cn1nc(C2=C(c3cn(CCCn4ccnc4)c4ccccc34)C(=O)NC2=O)c2ccccc21`, the half-maximal inhibitory concentration (IC50) in assay [6] is 1540 nM.
Still for that read-out and setting: then `O=C1NC(=O)C(c2cn(CCCn3ccnc3)c3ccccc23)=C1c1coc2ncccc12`, with 2220 nM; and `Cn1nc(C2=C(c3cn(CCCn4ccnc4)c4ccc(F)cc34)C(=O)NC2=O)c2cccnc21`, with 810 nM.
With `Cc1cccc2c(C3=C(c4nn(C)c5ncccc45)C(=O)NC3=O)cn(CCCn3ccnc3)c12`, the half-inhibitory concentration (IC50) in assay [6] was determined as 290 nM.
For the compound `Cn1cc(C2=C(c3nn(CCCn4ccnc4)c4ncccc34)C(=O)NC2=O)c2ccccc21`, the IC50 in assay [6] was 1280 nM.
The same measure, in the same setting: then `Cn1cc(C2=C(c3cn(CCCn4ccnc4)c4ccccc34)C(=O)NC2=O)c2ccccc21`, with 1480 nM; and `O=C1NC(=O)C(c2cn(CCCn3ccnc3)c3ccccc23)=C1c1ccccc1`, with 1980 nM.
As for `Cn1nc(C2=C(c3cn(CCCn4ccnc4)c4cc(Br)ccc34)C(=O)NC2=O)c2cccnc21`, the IC50 is > 20000 nM in assay [2]; > 20000 nM in [3]; 460 nM in [4]; 192 nM in assay [5]; > 20000 nM at Hexokinase-4; 60 nM in assay [6]. In addition, the half-maximal inhibitory concentration (IC50) in assay [8] and in assay [9] was > 20000 nM each time. Also, in assay [11], the inhibition entry was “Active”. In assay [10], the inhibition result is “Dose-dependent effect”.
As for `CCn1nc(C2=C(c3cn(CCCn4ccnc4)c4ccccc34)C(=O)NC2=O)c2cccnc21`, the half-inhibitory concentration (IC50) in assay [6] came to 230 nM.
With `Cn1nc(C2=C(c3c[nH]c4ccccc34)C(=O)NC2=O)c2cccnc21`, in [1], the inhibition amounted to 38.1%.
Regarding `CCCCn1nc(C2=C(c3cn(CCCn4ccnc4)c4ccccc34)C(=O)NC2=O)c2cccnc21`, the concentration for half-maximal inhibition (IC50) in [6] worked out at 950 nM.
Take `Cn1nc(C2=C(c3cn(CCCn4ccnc4)c4ccc(Br)cc34)C(=O)NC2=O)c2cccnc21`: in assay [6], the IC50 came out at 5000 nM.
Take `Cn1nc(C2=C(c3cn(CCCO)c4ccccc34)C(=O)NC2=O)c2cccnc21`: the half-maximal inhibitory concentration (IC50) in [6] was determined as 39600 nM.
For the compound `Cc1ccc2c(C3=C(c4nn(C)c5ncccc45)C(=O)NC3=O)cn(CCCn3ccnc3)c2c1`, the half-inhibitory concentration (IC50) in assay [2] is > 20000 nM; in assay [3], > 20000 nM; in assay [4] it was 483 nM; in assay [5], 189 nM; on Hexokinase-4 it was > 20000 nM; in assay [6] it was 60 nM. The IC50 in assay [8] and in assay [9] was > 20000 nM throughout. In assay [10], the inhibition result was “Dose-dependent effect”.
Regarding `COc1ccc2c(C3=C(c4nn(C)c5ncccc45)C(=O)NC3=O)cn(CCCn3ccnc3)c2c1`, the IC50 in [6] worked out at 190 nM.
Same read-out and setting: then `Cn1nc(C2=C(c3cn(CCCn4cncn4)c4ccccc34)C(=O)NC2=O)c2cccnc21`, with 11900 nM; and `Cn1nc(C2=C(c3cn(CCn4ccnc4)c4ccccc34)C(=O)NC2=O)c2cccnc21`, with 4420 nM.
Turning to `Cn1nc(C2=C(c3cn(CCCn4ccnc4)c4ccccc34)C(=O)NC2=O)c2cccnc21`, the concentration for half-maximal inhibition (IC50) is > 20000 nM in assay [2]; > 20000 nM in [3]; 386 nM in assay [4]; 398 nM in assay [5]; > 20000 nM at Hexokinase-4; 50 nM in assay [6]. Besides, the 50% inhibitory concentration (IC50) in assay [8] and in assay [9] was > 20000 nM each time. Also, in [7], the inhibition entry is “inactive”.
For `Cn1nc(C2=C(c3cn(CCCn4ccnc4)c4cc(F)ccc34)C(=O)NC2=O)c2cccnc21`, the IC50 is > 20000 nM in assay [2]; > 20000 nM in assay [3]; 334 nM in [4]; 246 nM in assay [5]; > 20000 nM at Hexokinase-4; 90 nM in [6]. The half-inhibitory concentration (IC50) in [8] and in assay [9] was > 20000 nM throughout. In addition, the inhibition entry in [10] is “Dose-dependent effect”.
`Cc1ccccc1C(C(=O)NC1CCCCC1)N(C(=O)Cn1ccnc1C)c1cccc(F)c1` (stereo not given): the IC50 in [2] was > 20000 nM; in assay [3] it was > 20000 nM; in [4] it was 227 nM; in assay [5] it was 186 nM; on Hexokinase-4, > 20000 nM; in [6] it was 20 nM. The IC50 in [8] and in assay [9] was > 20000 nM each time.
